Laboratory results reported in ChEMBL document CHEMBL4152224, “The Identification of Potent, Selective, and Orally Available Inhibitors of Ataxia Telangiectasia Mutated (ATM) Kinase: The Discovery of AZD0156 (8-{6-[3-(Dimethylamino)propoxy]pyridin-3-yl}-3-methyl-1-(tetrahydro-2 H-pyran-4-yl)-1,3-dihydro-2 H-imidazo[4,5- c]quinolin-2-one)” (J Med Chem, 2018).
≈ marks a conversion by molar mass, not a printed value.

How the values were obtained:
[1] = target: Serine/threonine-protein kinase ATR (Homo sapiens, UniProt Q13535)
[2] = Buffer/octanol partition coefficient, log D of the compound at pH 7.4 by shake flask method; format: physicochemical
[3] = target: Serine-protein kinase ATM (Homo sapiens, UniProt Q13315)
[4] = Thermodynamic solubility of the compound in 0.1M aqueous phosphate buffer at pH 7.4 after 24 hrs by LC-UV analysis; format: physicochemical; conditions: read-out: Therm_solubility
[5] = Intrinsic clearance in human hepatocytes assessed per million cells
[6] = target: Voltage-gated inwardly rectifying potassium channel KCNH2 (Homo sapiens, UniProt Q12809); assay: Inhibition of human ERG by electrophysiology assay
[7] = Intrinsic clearance in rat hepatocytes assessed per million cells
[8] = in vitro; conditions: dog, MDCK-MDR1
Description: Efflux ratio of apparent permeability across basolateral to apical over apical to basolateral side in MDCK cells overexpressing MDR1

[9] = Apparent permeability across apical to basolateral side in MDCK cells overexpressing MDR1; format: ADME, cell-based, Canis lupus familiaris; conditions: dog

Chain of Serine-protein kinase ATM (Q13315 whole entry): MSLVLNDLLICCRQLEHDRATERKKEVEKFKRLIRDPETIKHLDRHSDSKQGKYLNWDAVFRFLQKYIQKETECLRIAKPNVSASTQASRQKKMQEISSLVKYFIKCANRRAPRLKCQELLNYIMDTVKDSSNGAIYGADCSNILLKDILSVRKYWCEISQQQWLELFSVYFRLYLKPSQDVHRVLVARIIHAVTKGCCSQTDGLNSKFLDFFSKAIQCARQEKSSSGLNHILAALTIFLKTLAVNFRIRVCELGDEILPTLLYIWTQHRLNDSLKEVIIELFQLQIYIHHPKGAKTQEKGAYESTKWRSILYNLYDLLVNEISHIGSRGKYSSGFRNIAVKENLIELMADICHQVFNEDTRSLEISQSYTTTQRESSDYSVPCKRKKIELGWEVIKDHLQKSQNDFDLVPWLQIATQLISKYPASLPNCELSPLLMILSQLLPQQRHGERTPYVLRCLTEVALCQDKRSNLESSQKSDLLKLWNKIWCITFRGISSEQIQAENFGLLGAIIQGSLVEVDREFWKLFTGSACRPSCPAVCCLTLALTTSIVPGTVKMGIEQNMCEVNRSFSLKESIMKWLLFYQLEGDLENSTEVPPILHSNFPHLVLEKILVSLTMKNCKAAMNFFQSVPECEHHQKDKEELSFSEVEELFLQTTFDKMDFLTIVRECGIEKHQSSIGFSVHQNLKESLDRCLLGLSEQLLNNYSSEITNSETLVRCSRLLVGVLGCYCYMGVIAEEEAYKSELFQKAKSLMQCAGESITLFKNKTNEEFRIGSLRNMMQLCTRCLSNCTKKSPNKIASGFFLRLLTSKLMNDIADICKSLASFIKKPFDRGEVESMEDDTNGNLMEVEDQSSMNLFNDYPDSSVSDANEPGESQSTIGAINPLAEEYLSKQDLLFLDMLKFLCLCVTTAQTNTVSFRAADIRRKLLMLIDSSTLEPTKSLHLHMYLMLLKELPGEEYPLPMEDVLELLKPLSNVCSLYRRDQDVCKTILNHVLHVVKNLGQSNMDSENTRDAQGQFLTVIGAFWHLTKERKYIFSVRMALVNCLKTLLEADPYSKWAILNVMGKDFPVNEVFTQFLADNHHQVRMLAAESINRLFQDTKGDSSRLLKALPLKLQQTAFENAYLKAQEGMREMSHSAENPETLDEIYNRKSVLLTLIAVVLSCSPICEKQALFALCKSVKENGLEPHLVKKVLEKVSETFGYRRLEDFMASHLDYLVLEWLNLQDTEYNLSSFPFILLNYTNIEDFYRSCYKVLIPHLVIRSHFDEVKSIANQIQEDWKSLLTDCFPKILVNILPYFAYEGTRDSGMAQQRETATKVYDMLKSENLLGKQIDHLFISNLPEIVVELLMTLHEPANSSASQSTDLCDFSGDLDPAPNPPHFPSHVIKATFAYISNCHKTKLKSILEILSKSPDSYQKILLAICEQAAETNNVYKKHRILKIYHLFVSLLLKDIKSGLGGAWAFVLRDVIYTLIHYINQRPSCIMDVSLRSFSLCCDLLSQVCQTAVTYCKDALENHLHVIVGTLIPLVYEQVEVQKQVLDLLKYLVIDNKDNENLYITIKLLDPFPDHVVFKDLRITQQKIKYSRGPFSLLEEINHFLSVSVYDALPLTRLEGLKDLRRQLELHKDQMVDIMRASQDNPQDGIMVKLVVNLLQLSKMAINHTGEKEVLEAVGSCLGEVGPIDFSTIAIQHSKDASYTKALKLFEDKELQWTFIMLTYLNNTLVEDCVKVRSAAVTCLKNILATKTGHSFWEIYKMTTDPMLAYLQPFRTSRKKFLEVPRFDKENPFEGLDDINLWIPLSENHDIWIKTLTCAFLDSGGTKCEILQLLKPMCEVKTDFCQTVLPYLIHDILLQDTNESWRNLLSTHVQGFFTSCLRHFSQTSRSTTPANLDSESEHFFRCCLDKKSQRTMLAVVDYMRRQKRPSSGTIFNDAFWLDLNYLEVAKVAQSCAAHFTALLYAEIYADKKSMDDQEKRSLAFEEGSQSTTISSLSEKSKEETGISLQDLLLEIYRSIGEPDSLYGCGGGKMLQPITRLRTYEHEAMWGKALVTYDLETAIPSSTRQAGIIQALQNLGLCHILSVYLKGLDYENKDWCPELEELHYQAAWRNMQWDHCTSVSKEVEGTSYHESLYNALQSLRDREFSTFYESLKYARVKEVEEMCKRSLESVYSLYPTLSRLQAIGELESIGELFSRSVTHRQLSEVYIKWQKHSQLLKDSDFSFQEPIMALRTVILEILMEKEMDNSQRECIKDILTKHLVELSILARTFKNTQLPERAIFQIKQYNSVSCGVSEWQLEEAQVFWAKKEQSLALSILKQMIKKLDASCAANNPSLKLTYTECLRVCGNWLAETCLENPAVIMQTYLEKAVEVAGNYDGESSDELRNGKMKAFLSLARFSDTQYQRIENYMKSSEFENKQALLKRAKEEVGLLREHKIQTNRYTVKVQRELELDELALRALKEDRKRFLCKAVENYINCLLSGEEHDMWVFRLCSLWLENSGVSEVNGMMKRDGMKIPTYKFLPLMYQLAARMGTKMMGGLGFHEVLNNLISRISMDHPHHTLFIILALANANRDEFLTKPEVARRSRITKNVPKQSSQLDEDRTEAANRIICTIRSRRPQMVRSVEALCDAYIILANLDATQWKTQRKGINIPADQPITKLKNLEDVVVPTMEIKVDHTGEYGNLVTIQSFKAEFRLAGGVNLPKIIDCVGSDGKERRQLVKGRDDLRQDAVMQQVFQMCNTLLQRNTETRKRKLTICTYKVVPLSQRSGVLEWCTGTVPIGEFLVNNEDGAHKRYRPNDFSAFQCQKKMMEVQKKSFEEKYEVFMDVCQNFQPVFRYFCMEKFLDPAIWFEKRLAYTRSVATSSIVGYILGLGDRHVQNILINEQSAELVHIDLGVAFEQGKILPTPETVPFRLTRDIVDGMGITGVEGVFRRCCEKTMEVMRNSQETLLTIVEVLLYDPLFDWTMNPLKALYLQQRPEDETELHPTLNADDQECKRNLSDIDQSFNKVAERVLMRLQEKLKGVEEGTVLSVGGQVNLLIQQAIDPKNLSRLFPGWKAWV
Chain of Voltage-gated inwardly rectifying potassium channel KCNH2 (Q12809 whole entry): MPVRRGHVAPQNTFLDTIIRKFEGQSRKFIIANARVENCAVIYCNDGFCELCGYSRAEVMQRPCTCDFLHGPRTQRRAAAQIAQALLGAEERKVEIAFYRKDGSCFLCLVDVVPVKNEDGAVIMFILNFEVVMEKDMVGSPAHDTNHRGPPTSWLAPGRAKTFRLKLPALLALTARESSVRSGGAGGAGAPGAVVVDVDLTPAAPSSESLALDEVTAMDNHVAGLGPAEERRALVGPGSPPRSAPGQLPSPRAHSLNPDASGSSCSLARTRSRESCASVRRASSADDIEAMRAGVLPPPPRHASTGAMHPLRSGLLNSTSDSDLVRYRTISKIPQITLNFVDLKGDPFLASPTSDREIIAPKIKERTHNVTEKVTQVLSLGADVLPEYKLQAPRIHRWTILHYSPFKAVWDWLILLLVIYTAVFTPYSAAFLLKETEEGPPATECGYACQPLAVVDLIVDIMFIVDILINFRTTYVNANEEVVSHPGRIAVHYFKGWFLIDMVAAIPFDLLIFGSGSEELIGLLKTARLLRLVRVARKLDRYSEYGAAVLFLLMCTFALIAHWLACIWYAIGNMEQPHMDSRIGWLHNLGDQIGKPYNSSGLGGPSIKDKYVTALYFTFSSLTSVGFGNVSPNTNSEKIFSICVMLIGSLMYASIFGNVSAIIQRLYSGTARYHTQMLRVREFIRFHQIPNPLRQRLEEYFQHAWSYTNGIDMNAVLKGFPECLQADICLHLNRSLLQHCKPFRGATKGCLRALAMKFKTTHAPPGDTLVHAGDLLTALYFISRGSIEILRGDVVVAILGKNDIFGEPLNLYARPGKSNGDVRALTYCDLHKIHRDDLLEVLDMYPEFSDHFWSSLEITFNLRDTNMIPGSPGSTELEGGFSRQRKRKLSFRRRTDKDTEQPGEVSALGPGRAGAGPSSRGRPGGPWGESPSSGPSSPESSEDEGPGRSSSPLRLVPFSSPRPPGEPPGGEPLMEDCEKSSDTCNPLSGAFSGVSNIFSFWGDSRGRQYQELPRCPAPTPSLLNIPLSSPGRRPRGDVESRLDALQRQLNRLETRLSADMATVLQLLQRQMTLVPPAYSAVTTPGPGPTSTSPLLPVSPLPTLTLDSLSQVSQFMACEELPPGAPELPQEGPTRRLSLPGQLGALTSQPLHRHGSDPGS

CC(C)n1c(=O)n(C2CCOCC2)c2c3cc(-c4cccnc4)ccc3ncc21
IC50 [1]: > 27.6 µM | logD [2]: 2.9 | IC50 [3]: > 30 µM | solubility thermodynamic at 24 h [4]: 41 µM (≈ 15.9 µg/mL)

COCc1ccc(-c2cc3c(cc2F)ncc2c3n(C3CCOCC3)c(=O)n2C)cn1
hepatocyte CLint [5]: < 4 µL/min/1e6 cells | IC50 [1]: > 20 µM | logD [2]: 2.4 | IC50 [6]: 27 µM | hepatocyte CLint [7]: 7.5 µL/min/1e6 cells | efflux ratio [8]: 0.8 | IC50 [3]: 0.45 µM | Papp A→B [9]: 43 ×10⁻⁶ cm/s | solubility thermodynamic at 24 h [4]: 99 µM (≈ 41.8 µg/mL)

CO[C@H]1C[C@@H](n2c(=O)n(C)c3cnc4cc(F)c(-c5ccc(CO)nc5)cc4c32)C1
IC50 [1]: 15 µM | logD [2]: 2 | IC50 [6]: 23 µM | hepatocyte CLint [7]: 5 µL/min/1e6 cells | efflux ratio [8]: 1.1 | IC50 [3]: 0.23 µM | Papp A→B [9]: 29 ×10⁻⁶ cm/s | solubility thermodynamic at 24 h [4]: 23 µM (≈ 9.39 µg/mL)

COCc1ccc(-c2cc3c(cc2F)ncc2c3n([C@H]3C[C@H](OC)C3)c(=O)n2C)cn1
hepatocyte CLint [5]: 8.4 µL/min/1e6 cells | IC50 [1]: > 28 µM | logD [2]: 3 | IC50 [6]: 8.9 µM | hepatocyte CLint [7]: 4.3 µL/min/1e6 cells | efflux ratio [8]: 0.6 | IC50 [3]: 0.16 µM | Papp A→B [9]: 28 ×10⁻⁶ cm/s | solubility thermodynamic at 24 h [4]: 49 µM (≈ 20.7 µg/mL)

CO[C@H]1C[C@@H](n2c(=O)n(C)c3cnc4ccc(-c5ccc(OCCCN6CCCCC6)nc5)cc4c32)C1
hepatocyte CLint [5]: 3 µL/min/1e6 cells | logD [2]: 2.2 | IC50 [6]: 14 µM | hepatocyte CLint [7]: 4 µL/min/1e6 cells | Papp A→B [9]: 5.4 ×10⁻⁶ cm/s | solubility thermodynamic at 24 h [4]: > 1000 µM

COCc1ccc(-c2cc3c(N[C@@H](C)c4ccn(C)n4)c(C(N)=O)cnc3cc2F)cn1
efflux ratio [8]: 8.7 | Papp A→B [9]: 12 ×10⁻⁶ cm/s

CN(C)CCCOc1ccc(-c2ccc3ncc4c(c3c2)n([C@@H]2CCCOC2)c(=O)n4C)cn1
hepatocyte CLint [5]: 5.6 µL/min/1e6 cells | IC50 [1]: > 23 µM | logD [2]: 1.8 | IC50 [6]: > 33 µM | hepatocyte CLint [7]: 3.7 µL/min/1e6 cells | Papp A→B [9]: 7.5 ×10⁻⁶ cm/s | solubility thermodynamic at 24 h [4]: > 1000 µM

CO[C@H]1C[C@@H](n2c(=O)n(C)c3cnc4cc(F)c(-c5ccc(OCCCN(C)C)nc5F)cc4c32)C1
hepatocyte CLint [5]: 14 µL/min/1e6 cells | logD [2]: 2.1 | IC50 [6]: 22 µM | hepatocyte CLint [7]: 9 µL/min/1e6 cells | efflux ratio [8]: 2.5 | Papp A→B [9]: 10 ×10⁻⁶ cm/s | solubility thermodynamic at 24 h [4]: > 1000 µM

CN(C)CCCOc1ccc(-c2cc3c(cc2F)ncc2c3n(C3CCOCC3)c(=O)n2C)cn1
hepatocyte CLint [5]: 6.8 µL/min/1e6 cells | logD [2]: 1.5 | IC50 [6]: > 33 µM | hepatocyte CLint [7]: 8.3 µL/min/1e6 cells | efflux ratio [8]: 4.4 | Papp A→B [9]: 7.9 ×10⁻⁶ cm/s | solubility thermodynamic at 24 h [4]: > 1000 µM

COCc1ccc(-c2cc3c(cc2F)ncc2c3n([C@H]3C[C@@H](O)C3)c(=O)n2C)cn1
hepatocyte CLint [5]: 2.7 µL/min/1e6 cells | IC50 [1]: > 30 µM | logD [2]: 2 | IC50 [6]: 15 µM | hepatocyte CLint [7]: 6 µL/min/1e6 cells | efflux ratio [8]: 2.6 | IC50 [3]: 0.14 µM | Papp A→B [9]: 14 ×10⁻⁶ cm/s | solubility thermodynamic at 24 h [4]: 270 µM (≈ 110 µg/mL)

CN(C)CCCOc1ccc(-c2ccc3ncc4c(c3n2)n(C2CCOCC2)c(=O)n4C)cn1
hepatocyte CLint [5]: 12.8 µL/min/1e6 cells | IC50 [1]: 2 µM | logD [2]: 1.6 | hepatocyte CLint [7]: 9.2 µL/min/1e6 cells | IC50 [3]: 0.0017 µM

O=c1[nH]c2cnc3ccc(-c4cccnc4)cc3c2n1C1CCOCC1
IC50 [1]: 0.051 µM | logD [2]: 2.4 | solubility thermodynamic at 24 h [4]: 12 µM (≈ 4.16 µg/mL)

CO[C@H]1C[C@@H](n2c(=O)n(C)c3cnc4cc(F)c(-c5ccc(CS(C)(=O)=O)nc5)cc4c32)C1
IC50 [1]: > 16 µM | logD [2]: 1.3 | IC50 [6]: 14 µM | hepatocyte CLint [7]: 2.4 µL/min/1e6 cells | efflux ratio [8]: 2.4 | IC50 [3]: 0.16 µM | Papp A→B [9]: 14 ×10⁻⁶ cm/s | solubility thermodynamic at 24 h [4]: 18 µM (≈ 8.47 µg/mL)

Cn1c(=O)n(C2CCOCC2)c2c3cc(-c4ccc(OCCC[N+](C)(C)[O-])nc4)ccc3ncc21
IC50 [1]: 10 µM | IC50 [3]: 0.005 µM

Cn1c(=O)n(C2CCOCC2)c2c3cc(-c4ccc(OCCCN5CCCCC5)nc4)c(F)cc3ncc21
hepatocyte CLint [5]: 5.3 µL/min/1e6 cells | IC50 [1]: > 29 µM | logD [2]: 2.1 | IC50 [6]: > 33 µM | hepatocyte CLint [7]: 5.1 µL/min/1e6 cells | efflux ratio [8]: 2.2 | IC50 [3]: 0.0012 µM | Papp A→B [9]: 6.4 ×10⁻⁶ cm/s | solubility thermodynamic at 24 h [4]: 310 µM (≈ 161 µg/mL)

CO[C@H]1C[C@@H](n2c(=O)n(C)c3cnc4cc(F)c(-c5ccc(NCCN(C)C)nc5)cc4c32)C1
hepatocyte CLint [5]: 2.8 µL/min/1e6 cells | IC50 [1]: > 30 µM | logD [2]: 1.7 | IC50 [6]: 24 µM | hepatocyte CLint [7]: 9.6 µL/min/1e6 cells | efflux ratio [8]: 11 | IC50 [3]: 0.006 µM | Papp A→B [9]: 3.4 ×10⁻⁶ cm/s | solubility thermodynamic at 24 h [4]: > 1000 µM

Cn1c(=O)n([C@H]2CCCOC2)c2c3cc(-c4ccc(OCCCN5CCCCC5)nc4)c(F)cc3ncc21
hepatocyte CLint [5]: 4 µL/min/1e6 cells | logD [2]: 2.4 | IC50 [6]: 18 µM | hepatocyte CLint [7]: 6.2 µL/min/1e6 cells | efflux ratio [8]: 1.4 | IC50 [3]: 0.0011 µM | Papp A→B [9]: 7.1 ×10⁻⁶ cm/s | solubility thermodynamic at 24 h [4]: 330 µM (≈ 171 µg/mL)

CN(C)CCCOc1ccc(-c2ccc3ncc4c(c3c2)n([C@H]2C[C@@H](O)C2)c(=O)n4C)cn1
hepatocyte CLint [5]: 3.5 µL/min/1e6 cells | logD [2]: 1.1 | IC50 [6]: > 33 µM | hepatocyte CLint [7]: 2.7 µL/min/1e6 cells | efflux ratio [8]: > 100 | Papp A→B [9]: < 0.2 ×10⁻⁶ cm/s | solubility thermodynamic at 24 h [4]: > 1000 µM

CN(C)CCCOc1ccc(-c2ccc3nnc4c(c3c2)n(C2CCOCC2)c(=O)n4C)cn1
hepatocyte CLint [5]: < 1 µL/min/1e6 cells | IC50 [1]: > 30 µM | logD [2]: 0.8 | hepatocyte CLint [7]: 2.5 µL/min/1e6 cells | IC50 [3]: 0.022 µM

CN(C)CCCOc1ccc(-c2ccc3ncc4c(c3c2)n([C@H]2CCCOC2)c(=O)n4C)cn1
hepatocyte CLint [5]: 6.1 µL/min/1e6 cells | logD [2]: 1.8 | IC50 [6]: 27 µM | hepatocyte CLint [7]: 3 µL/min/1e6 cells | Papp A→B [9]: 6.5 ×10⁻⁶ cm/s | solubility thermodynamic at 24 h [4]: > 1000 µM

CO[C@H]1C[C@@H](n2c(=O)n(C)c3cnc4cc(F)c(-c5ccc(N(C)CCN(C)C)nc5)cc4c32)C1
hepatocyte CLint [5]: 5.1 µL/min/1e6 cells | IC50 [1]: > 30 µM | logD [2]: 2.2 | hepatocyte CLint [7]: 18 µL/min/1e6 cells | IC50 [3]: 0.23 µM | Papp A→B [9]: 6.3 ×10⁻⁶ cm/s | solubility thermodynamic at 24 h [4]: > 1000 µM

CCC(CC)CNc1c(C(N)=O)cnc2cc(F)c(-c3cnc(NCCN4CCCC4)nc3)cc12
IC50 [1]: > 30 µM | logD [2]: 2.8 | efflux ratio [8]: 28 | IC50 [3]: 0.0086 µM | Papp A→B [9]: 0.8 ×10⁻⁶ cm/s

COCc1ccc(-c2ccc3ncc4c(c3c2)n(C2CCOCC2)c(=O)n4C)cn1
hepatocyte CLint [5]: < 3 µL/min/1e6 cells | IC50 [1]: > 13 µM | logD [2]: 2.3 | IC50 [6]: > 33 µM | hepatocyte CLint [7]: 63 µL/min/1e6 cells | Papp A→B [9]: 32 ×10⁻⁶ cm/s | solubility thermodynamic at 24 h [4]: 19 µM (≈ 7.68 µg/mL)

CO[C@H]1C[C@@H](n2c(=O)n(C)c3cnc4ccc(-c5ccc(OCCCN(C)C)nc5F)cc4c32)C1
hepatocyte CLint [5]: 15 µL/min/1e6 cells | logD [2]: 2 | IC50 [6]: > 33 µM | hepatocyte CLint [7]: 9.3 µL/min/1e6 cells | Papp A→B [9]: 4.2 ×10⁻⁶ cm/s | solubility thermodynamic at 24 h [4]: > 1100 µM

CO[C@H]1C[C@@H](n2c(=O)n(C)c3cnc4ccc(-c5ccc(OCCCN6CCC6)nc5)cc4c32)C1
hepatocyte CLint [5]: 3.3 µL/min/1e6 cells | IC50 [1]: > 24 µM | logD [2]: 1.4 | IC50 [6]: > 33 µM | hepatocyte CLint [7]: 2.5 µL/min/1e6 cells | efflux ratio [8]: 7.8 | Papp A→B [9]: 3.5 ×10⁻⁶ cm/s | solubility thermodynamic at 24 h [4]: 770 µM (≈ 365 µg/mL)

CN(C)CCCOc1ccc(-c2ccc3ncc4c(c3c2)n(C2COC2)c(=O)n4C)cn1
hepatocyte CLint [5]: < 1 µL/min/1e6 cells | logD [2]: 0.7 | IC50 [6]: > 33 µM | hepatocyte CLint [7]: 7.8 µL/min/1e6 cells | efflux ratio [8]: 9.8 | Papp A→B [9]: 3.2 ×10⁻⁶ cm/s | solubility thermodynamic at 24 h [4]: 52 µM (≈ 22.5 µg/mL)
